In patent US7795178B2, “Fungicidal active combinations spiroxamine, prothioconazole and tebuconazole” (Bayer CropScience AG, priority 2003, dated 2010):

Assays:
Format in all cases: in vivo
Leptosphaeria nodorum = Leptosphaeria nodorum test (wheat)/curative; details: curative, application rate 500 g/ha, evaluation 12 days after inoculation
Method: Leptosphaeria nodorum Test (Wheat)/Curative To produce a suitable preparation of active compound, a commercial formulation of active compound or active compound combination is diluted with water to the desired concentration. To test for curative activity, young plants are sprayed with a conidia suspension of Leptosphaeria nodorum. The plants remain in an incubation cabin at 20° C. and 100% relative atmospheric humidity for 48 hours and are then sprayed with the active compound preparation at the stated application rate. The plants are placed in a greenhouse at a temperature of about 15° C. and a relative atmospheric humidity of about 80%. Evaluation is carried out 12 days after the inoculation. 0% means an efficacy which corresponds to that of the control, whereas an efficacy of 100% means that no infection is observed.

[1] = system: Fusarium nivale var. majus; test: Fusarium nivale (var. majus) test (wheat)/curative; details: curative, evaluation 11 days after inoculation
Method: Fusarium nivale (var. majus) Test (Wheat)/Curative To produce a suitable preparation of active compound, a commercial formulation of active compound or active compound combination is diluted with water to the desired concentration. To test for curative activity, young plants are sprayed with a conidia suspension of Fusarium nivale var. majus. The plants remain in an incubation cabin at 15° C. and 100% relative atmospheric humidity for 24 hours and are then sprayed with the active compound preparation at the stated application rate. After the spray coating has dried on, the plants remain in a greenhouse under transparent incubation hoods at a temperature of about 15° C. and a relative atmospheric humidity of about 100%. Evaluation is carried out 11 days after the inoculation. 0% means an efficacy which corresponds to that of the control, whereas an efficacy of 100% means that no infection is observed.

[2] = system: Erysiphe graminis f.sp.tritici; test: Erysiphe test (wheat)/protective; details: protective, application rate 125 g/ha, evaluation 6 days after inoculation
Method: Erysiphe Test (Wheat)/Protective To produce a suitable preparation of active compound, a commercial formulation of active compound or active compound combination is diluted with water to the desired concentration. To test for protective activity, young plants are sprayed with the active compound preparation at the stated application rate. After the spray coating has dried on, the plants are dusted with spores of Erysiphe graminis f.sp.tritici. The plants are placed in a greenhouse at a temperature of about 20° C. and a relative atmospheric humidity of about 80% to promote the development of mildew pustules. Evaluation is carried out 6 days after the inoculation. 0% means an efficacy which corresponds to that of the control, whereas an efficacy of 100% means that no infection is observed.

Compound	Efficacy in % (Leptosphaeria nodorum) [%]	Efficacy in % found ([1]; application rate 140 g/ha) [%]	Efficacy in % [2] [%]	Efficacy in % found ([1]; application rate 55 g/ha) [%]
CCCN(CC)CC1COC2(CCC(C(C)(C)C)CC2)O1 (stereo not drawn) [(I) spiroxamine, 8-tert-butyl-1,4-dioxaspiro[4.5]decan-2-ylmethyl(ethyl)(propyl)amine]	0	17	33	
OC(Cc1ccccc1Cl)(Cn1nc[nH]c1=S)C1(Cl)CC1 (stereo not drawn) [(II) prothioconazole, prothioconazole]	20		78	17
CC(C)(C)C(O)(CCc1ccc(Cl)cc1)Cn1cncn1 (stereo not drawn) [(III) tebuconazole, tebuconazole]	40		78	33
